# Target: T1, cMET receptor tyrosine kinase (GST-cMET (969-1390)) (Homo sapiens, UniProt P08581)
# T1 construct: made in house
# Test: EPK cMET profiling assay (LanthaScreen TR-FRET antibody based kinase phosphorylation assay)
# Format: biochemical
# Settings: purified recombinant GST-cMET (969-1390), 2 μM ATP, 50 nM Fluorescein-PolyEAY, 60 minutes at room temperature; read-out: c-Met IC50
# How it was run: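 GST-cMET cytoplasmic domain (969-1390), 0.3 nM, phosphorylated 50 nM fluorescein-PolyEAY with 2 µM ATP, Mg2+/Mn2+, 0.6% DMSO, 60 min at room temperature. Stopped with EDTA; Tb-PY20 antibody TR-FRET single end-point read. Final compound concentrations 10 to 0.003 µM, 8 points.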
# T1 sequence (P08581 969-1390): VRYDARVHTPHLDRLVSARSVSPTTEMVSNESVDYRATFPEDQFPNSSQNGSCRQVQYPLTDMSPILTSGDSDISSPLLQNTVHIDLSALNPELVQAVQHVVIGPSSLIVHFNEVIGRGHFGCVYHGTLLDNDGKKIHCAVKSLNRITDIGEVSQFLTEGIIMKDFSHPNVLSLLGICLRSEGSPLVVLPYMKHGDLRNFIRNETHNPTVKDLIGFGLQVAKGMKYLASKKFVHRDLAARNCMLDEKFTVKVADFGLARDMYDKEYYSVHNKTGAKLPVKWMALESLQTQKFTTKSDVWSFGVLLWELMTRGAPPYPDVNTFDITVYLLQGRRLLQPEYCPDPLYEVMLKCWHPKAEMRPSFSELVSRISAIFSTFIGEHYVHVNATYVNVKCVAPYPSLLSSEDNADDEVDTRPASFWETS
row,Compound,IC50 [nM]
1,"Fc1cc2ncccc2c(F)c1Cc1cnc2ccc(-c3cnn(C4CCNCC4)c3)nn12 [Example 245, 5,7-Difluoro-6-[6-(1-piperidin-4-yl-1H-pyrazol-4-yl)-imidazo[1,2-b]pyridazin-3-ylmethyl]-quinoline]",44
2,"CN1CCC(n2cc(-c3ccc4ncc(Cc5c(F)cc6ncccc6c5F)n4n3)cn2)CC1 [Example 246, 5,7-Difluoro-6-{6-[1-(1-methyl-piperidin-4-yl)-1H-pyrazol-4-yl]-imidazo[1,2-b]pyridazin-3-ylmethyl}-quinoline]",< 3
3,"CCn1cc(-c2ccc3ncc(Cc4cc5cccnc5cc4F)n3n2)cn1 [Example 250, 6-[6-(1-Ethyl-1H-pyrazol-4-yl)-imidazo[1,2-b]pyridazin-3-ylmethyl]-7-fluoro-quinoline]",15
4,"Fc1cc2ncccc2cc1Cc1cnc2ccc(-c3cn[nH]c3)nn12 [Example 251, 7-Fluoro-6-[6-(1H-pyrazol-4-yl)-imidazo[1,2-b]pyridazin-3-ylmethyl]-quinoline]",21
5,"OCCn1cc(-c2ccc3ncc(Cc4cc5cccnc5cc4F)n3n2)cn1 [Example 254, 2-{4-[3-(7-Fluoro-quinolin-6-ylmethyl)-imidazo[1,2-b]pyridazin-6-yl]-pyrazol-1-yl}-ethanol]",33
6,C[C@@H](c1cc2cccnc2cc1F)c1cnc2ccc(-c3cnn(CCO)c3)nn12 [Example 257],< 3
7,"O[C@H]1CCN(c2ccc3ncc(Cc4cc5cccnc5cc4F)n3n2)C1 [Example 261, (S)-1-[3-(7-Fluoro-quinolin-6-ylmethyl)-imidazo[1,2-b]pyridazin-6-yl]-pyrrolidin-3-ol]",120
8,"O[C@@H]1CCN(c2ccc3ncc(Cc4cc5cccnc5cc4F)n3n2)C1 [Example 262, (R)-1-[3-(7-Fluoro-quinolin-6-ylmethyl)-imidazo[1,2-b]pyridazin-6-yl]-pyrrolidin-3-ol]",42
9,"Fc1cc2ncccc2c(F)c1Cc1cnc2ccc(-c3cn[nH]c3)nn12 [Example 263, 5,7-Difluoro-6-[6-(1H-pyrazol-4-yl)-imidazo[1,2-b]pyridazin-3-ylmethyl]-quinoline]",10
10,"C[C@@H](c1ccc2ncccc2c1)c1cnc2ccc(Cl)nn12 [Example 273, 6-[(S)-1-(6-Chloro-imidazo[1,2-b]pyridazin-3-yl)-ethyl]-quinoline]",21
11,"C[C@@H](c1ccc2c(cnn2CCO)c1)c1cnc2ccc(-c3cnn(C)c3)nn12 [Example 275, 2-(5-{(S)-1-[6-(1-Methyl-1H-pyrazol-4-yl)-imidazo[1,2-b]pyridazin-3-yl]-ethyl}-indazol-1-yl)ethanol]",150
12,"Cn1cc(-c2ccc3ncc(Cc4ccc5c(cnn5C)c4)n3n2)cn1 [Example 276, 3-(1-Methyl-1H-indazol-5-ylmethyl)-6-(1-methyl-1H-pyrazol-4-yl)-imidazo[1,2-b]pyridazine]",82
13,"Cn1cc(-c2ccc3ncc(Cc4cc5cnn(C)c5cc4F)n3n2)cn1 [Example 277, 3-(6-Fluoro-1-methyl-1H-indazol-5-ylmethyl)-6-(1-methyl-1H-pyrazol-4-yl)-imidazo[1,2-b]pyridazine]",61
14,"Cn1ncc2cc(Cc3cnc4ccc(-c5cnn(CCO)c5)nn34)c(F)cc21 [Example 281, 2-{4-[3-(6-Fluoro-1-methyl-1H-indazol-5-ylmethyl)-imidazo[1,2-b]pyridazin-6-yl]-pyrazol-1-yl}-ethanol]",77
15,"Cn1ncc2cc(Cc3cnc4ccc(-c5cnn(C6CCNCC6)c5)nn34)c(F)cc21 [Example 282, 3-(6-Fluoro-1-methyl-1H-indazol-5-ylmethyl)-6-(1-piperidin-4-yl-1H-pyrazol-4-yl)-imidazo[1,2-b]pyridazine]",87
16,"Cn1cc(-c2ccc3ncc(Cc4c(F)cc5c(cnn5C)c4F)n3n2)cn1 [Example 284, 3-(4,6-Difluoro-1-methyl-1H-indazol-5-ylmethyl)-6-(1-methyl-1H-pyrazol-4-yl)-imidazo[1,2-b]pyridazine]",150
17,"Cn1ncc2c(F)c(Cc3cnc4ccc(-c5cnn(CCO)c5)nn34)c(F)cc21 [Example 285, 2-{4-[3-(4,6-Difluoro-1-methyl-1H-indazol-5-ylmethyl)-imidazo[1,2-b]pyridazin-6-yl]-pyrazol-1-yl}-ethanol]",11
18,"Cn1cc(-c2ccc3ncc(Cc4ccc5nc(F)cn5c4)n3n2)cn1 [Example 288, 3-(2-Fluoro-imidazo[1,2-a]pyridin-6-ylmethyl)-6-(1-methyl-1H-pyrazol-4-yl)-imidazo[1,2-b]pyridazine]",850

row,Compound,IC50 [nM]
1,"CCn1cc(-c2ccc3ncc(Cc4ccc5nccn5c4)n3n2)cn1 [Example 289, 6-(1-Ethyl-1H-pyrazol-4-yl)-3-imidazo[1,2-a]pyridin-6-ylmethyl-imidazo[1,2-b]pyridazine]",140
2,"c1cn2cc(Cc3cnc4ccc(-c5cn[nH]c5)nn34)ccc2n1 [Example 290, 3-Imidazo[1,2-a]pyridin-6-ylmethyl-6-(1H-pyrazol-4-yl)-imidazo[1,2-b]pyridazine]",120
3,"c1cn2cc(Cc3cnc4ccc(-c5cnn(C6CCNCC6)c5)nn34)ccc2n1 [Example 291, 3-Imidazo[1,2-a]pyridin-6-ylmethyl-6-(1-piperidin-4-yl-1H-pyrazol-4-yl)-imidazo[1,2-b]pyridazine]",590
4,"C[C@H](c1ccc2nccn2c1)c1cnc2ccc(-c3cnn(C)c3)nn12 [Example 294, 3-((R)-1-Imidazo[1,2-a]pyridin-6-yl-ethyl)-6-(1-methyl-1H-pyrazol-4-yl)-imidazo[1,2-b]pyridazine]",820
5,"C[C@@H](c1ccc2nccn2c1)c1cnc2ccc(-c3cnn(C)c3)nn12 [Example 295, 3-((S)-1-Imidazo[1,2-a]pyridin-6-yl-ethyl)-6-(1-methyl-1H-pyrazol-4-yl)-imidazo[1,2-b]pyridazine]",19
6,"Cn1cc(-c2ccc3ncc(Cc4ccc5ncc(Br)n5c4)n3n2)cn1 [Example 296, 3-(3-Bromo-imidazo[1,2-a]pyridin-6-ylmethyl)-6-(1-methyl-1H-pyrazol-4-yl)-imidazo[1,2-b]pyridazine]",57
7,"Cn1cc(-c2ccc3ncc(Cc4ccc5ncc(C=O)n5c4)n3n2)cn1 [Example 297, 6-[6-(1-Methyl-1H-pyrazol-4-yl)-imidazo[1,2-b]pyridazin-3-ylmethyl]-imidazo[1,2-a]pyridine-3-carbaldehyde]",130
8,"Cn1cc(-c2ccc3ncc(Cc4ccc5ncc(Cl)n5c4)n3n2)cn1 [Example 298, 3-(3-Chloro-imidazo[1,2-a]pyridin-6-ylmethyl)-6-(1-methyl-1H-pyrazol-4-yl)-imidazo[1,2-b]pyridazine]",130
9,"C=Cc1cnc2ccc(Cc3cnc4ccc(-c5cnn(C)c5)nn34)cn12 [Example 299, 6-(1-Methyl-1H-pyrazol-4-yl)-3-(3-vinyl-imidazo[1,2-a]pyridin-6-ylmethyl)-imidazo[1,2-b]pyridazine]",270
10,"Cn1cc(-c2ccc3ncc(Cc4ccc5ncc(CO)n5c4)n3n2)cn1 [Example 300, {6-[6-(1-Methyl-1H-pyrazol-4-yl)-imidazo[1,2-b]pyridazin-3-ylmethyl]-imidazo[1,2-a]pyridin-3-yl}-methanol]",300
11,"CC(=O)c1cnc2ccc(Cc3cnc4ccc(-c5cnn(C)c5)nn34)cn12 [Example 301, 1-{6-[6-(1-Methyl-1H-pyrazol-4-yl)-imidazo[1,2-b]pyridazin-3-ylmethyl]-imidazo[1,2-a]pyridin-3-yl}-ethanone]",71
12,"Cn1cc(-c2ccc3ncc(Cc4ccc5ncc(C#N)n5c4)n3n2)cn1 [Example 302, 6-[6-(1-Methyl-1H-pyrazol-4-yl)-imidazo[1,2-b]pyridazin-3-ylmethyl]-imidazo[1,2-a]pyridine-3-carbonitrile]",94
13,"CC(O)c1cnc2ccc(Cc3cnc4ccc(-c5cnn(C)c5)nn34)cn12 (centres unmarked) [Example 303, 1-{6-[6-(1-Methyl-1H-pyrazol-4-yl)-imidazo[1,2-b]pyridazin-3-ylmethyl]-imidazo[1,2-a]pyridin-3-yl}-ethanol]",190
14,"Cn1cc(-c2ccc3ncc(Cc4ccc5ncc(C(O)CO)n5c4)n3n2)cn1 (centres unmarked) [Example 304, 1-{6-[6-(1-Methyl-1H-pyrazol-4-yl)-imidazo[1,2-b]pyridazin-3-ylmethyl]-imidazo[1,2-a]pyridin-3-yl}-ethane-1,2-diol]",330
15,"Cn1cc(-c2ccc3ncc(Cc4ccc5ncc(-c6cccc(C#N)c6)n5c4)n3n2)cn1 [Example 305, 3-{6-[6-(1-Methyl-1H-pyrazol-4-yl)-imidazo[1,2-b]pyridazin-3-ylmethyl]-imidazo[1,2-a]pyridin-3-yl}-benzonitrile]",260
16,"Cn1cc(-c2ccc3ncc(Cc4ccc5ncc(-c6cccnc6)n5c4)n3n2)cn1 [Example 306, 6-(1-Methyl-1H-pyrazol-4-yl)-3-(3-pyridin-3-yl-imidazo[1,2-a]pyridin-6-ylmethyl)-imidazo[1,2-b]pyridazine]",100
17,"Cn1cc(-c2ccc3ncc(Cc4ccc5ncc(-c6cnn(C)c6)n5c4)n3n2)cn1 [Example 307, 6-(1-Methyl-1H-pyrazol-4-yl)-3-[3-(1-methyl-1H-pyrazol-4-yl)-imidazo[1,2-a]pyridin-6-ylmethyl]-imidazo[1,2-b]pyridazine]",320

# — patent US8822468B2 (Novartis AG, priority 2008, dated 2014)
